Data from patent US20190119298A1, “FUSED 3-PHENYLTETRAMIC ACID DERIVATIVES HAVING HERBICIDAL ACTION” (Bayer CropScience Aktiengesellschaft, priority 2016, published 2019).

Columns and labels:
Assay type in all cases: in vivo
Echinochloa crus-galli [1] = assay: Pre-emergence herbicidal effect; settings: 320 g/ha, scored visually after 3 weeks vs untreated controls, 100% = plants have died
In short: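 Wettable powder or emulsion concentrate sprayed onto soil covering freshly sown seeds in sandy loam, 600 to 800 L/ha water with 0.2% wetting agent. Pots kept in greenhouse. Damage scored visually after 3 weeks against untreated controls, 0-100% activity.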

Setaria viridis [2] = assay: Pre-emergence herbicidal effect; settings: 320 g/ha, scored visually after 3 weeks vs untreated controls, 100% = plants have died
In short: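 Pre-emergence: WP or EC formulations sprayed onto the soil surface over sown seeds in sandy loam at 600–800 L/ha water with 0.2% wetting agent. Plants kept in a greenhouse; damage scored visually after 3 weeks as % activity versus untreated controls (100% = dead).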

Avena fatua [3] = assay: Pre-emergence herbicidal effect; settings: 320 g/ha, scored visually after 3 weeks vs untreated controls, 100% = plants have died
In short: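 Weed and crop seeds sown in sandy loam were treated pre-emergence on the soil surface with WP or EC formulations at a water rate of 600 to 800 L/ha plus 0.2% wetting agent. Plants grown in a greenhouse; damage scored visually after 3 weeks as percent activity relative to untreated controls (100% = dead).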

Setaria viridis [4] = assay: Post-emergence herbicidal effect; settings: one-leaf stage, 320 g/ha, assessed visually after about 3 weeks, 100% = plants have died
In short: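 Greenhouse plants grown in sandy loam were sprayed at the one-leaf stage, 2-3 weeks after sowing. Compounds were applied as WP or EC formulations in 600-800 L/ha water plus 0.2% wetting agent. About 3 weeks later, damage was scored visually against untreated controls (0% = like control, 100% = dead plants).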

Lolium multiflorum [5] = assay: Post-emergence herbicidal effect; settings: one-leaf stage, 320 g/ha, assessed visually after about 3 weeks, 100% = plants have died
Experimental: (§1) LOLMU: Lolium multiflorum Seeds of monocotyledonous and dicotyledonous weed and crop plants are laid out in sandy loam soil in wood-fibre pots, covered with soil and cultivated in a greenhouse under good growth conditions. 2 to 3 weeks after sowing, the test plants are treated at the one-leaf stage. The compounds of the invention, formulated in the form of wettable powders (WP) or as emulsion concentrates (EC), are then sprayed onto the green parts of the plants as aqueous suspension or emulsion at a water application rate equating to 600 to 800 L/ha with addition of 0.2% wetting agent. After the test plants have been left to stand in the greenhouse under optimal growth conditions for about 3 weeks, the action of the preparations is assessed visually in comparison to untreated controls (herbicidal action in percent (%): 100% activity=the plants have died, 0% activity=like control plants).

Echinochloa crus-galli [6] = assay: Post-emergence herbicidal effect; settings: one-leaf stage, 320 g/ha, assessed visually after about 3 weeks, 100% = plants have died
In short: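 Greenhouse plants in sandy loam were sprayed at the one-leaf stage with WP or EC formulations at 600 to 800 L/ha water with 0.2% wetting agent. After about 3 weeks, damage was scored visually in % against untreated controls (100% = dead).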

Alopecurus myosuroides [7] = assay: Pre-emergence herbicidal effect; settings: 320 g/ha, scored visually after 3 weeks vs untreated controls, 100% = plants have died
In short: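 Seeds sown in sandy loam and covered; WP- or EC-formulated compounds sprayed onto covering soil at 600–800 L/ha water with 0.2% wetting agent. Greenhouse-grown; damage scored visually after 3 weeks versus untreated controls (100% = plants died, 0% = like control).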

Alopecurus myosuroides [8] = assay: Post-emergence herbicidal effect; settings: one-leaf stage, 320 g/ha, assessed visually after about 3 weeks, 100% = plants have died
Experimental: as §1, with “ALOMY: Alopecurus myosuroides” for “LOLMU: Lolium multiflorum”

Lolium multiflorum [9] = assay: Pre-emergence herbicidal effect; settings: 320 g/ha, scored visually after 3 weeks vs untreated controls, 100% = plants have died
In short: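 Seeds sown in sandy loam and covered; compounds as WP or EC applied to the soil surface pre-emergence at 600 to 800 L/ha water with 0.2% wetting agent. Greenhouse growth for 3 weeks, then damage scored visually versus untreated controls (100% = plants dead, 0% = like control).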

Avena fatua [10] = assay: Post-emergence herbicidal effect; settings: one-leaf stage, 320 g/ha, assessed visually after about 3 weeks, 100% = plants have died
In short: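 Greenhouse-grown plants in sandy loam treated at one-leaf stage, 2–3 weeks after sowing, by spraying WP or EC formulations as aqueous suspension/emulsion at 600–800 L/ha water with 0.2% wetting agent. After about 3 weeks, effect scored visually versus untreated controls (0% = like control, 100% = plants dead).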

Row | SMILES | Pre-emergence action ECHCG (herbicidal activity in percent) (Echinochloa crus-galli [1]) | Pre-emergence action SETVI (herbicidal activity in percent) (Setaria viridis [2]) | Pre-emergence action AVEFA (herbicidal activity in percent) (Avena fatua [3]) | Post-emergence effectiveness SETVI (herbicidal action in percent) (Setaria viridis [4]) | Post-emergence effectiveness LOLMU (herbicidal action in percent) (Lolium multiflorum [5]) | Post-emergence effectiveness ECHCG (herbicidal action in percent) (Echinochloa crus-galli [6]) | Pre-emergence action ALOMY (herbicidal activity in percent) (Alopecurus myosuroides [7]) | Post-emergence effectiveness ALOMY (herbicidal action in percent) (Alopecurus myosuroides [8]) | Pre-emergence action LOLMU (herbicidal activity in percent) (Lolium multiflorum [9]) | Post-emergence effectiveness AVEFA (herbicidal action in percent) (Avena fatua [10])
1 | CCc1cc(C)cc(C)c1C1=C(OC(=O)OC)C2CCOCCN2C1=O (centres unmarked) [Ib-1-6] | 100% | 100% | 100% | 100% | 100% | 100% | 100% | 100% | 100% | 100%
2 | CCOC(=O)OC1=C(c2c(C)cc(C)cc2CC)C(=O)N2CCOCCC12 (centres unmarked) [Ib-1-7] | 100% | 100% | 100% | 100% | 100% | 100% | 100% | 100% | 100% | 100%
3 | CCc1cc(C)cc(C)c1C1=C(OC(=O)C(C)(C)C)C2CCOCCN2C1=O (centres unmarked) [Ib-1-8] | 100% | 100% | 100% | 100% | 100% | 100% | 100% | 100% | 100% | 100%
4 | CCc1cc(C)cc(C)c1C1=C(OC(C)=O)C2CCOCCN2C1=O (centres unmarked) [Ib-1-9] | 100% | 100% | 100% | 100% | 100% | 100% | 100% | 100% | 100% | 100%
5 | CCOC(=O)OC1=C(c2c(C)cc(C)cc2C)C(=O)N2CCOCCC12 (centres unmarked) [Ib-1-10] | 100% | 100% | 90% | 100% | 100% | 100% | 80% | 100% | 100% | 100%
6 | Cc1cc(C)c(C2=C(OC(=O)C(C)(C)C)C3CCOCCN3C2=O)c(C)c1 (centres unmarked) [Ib-1-11] | 100% | 100% | 90% | 100% | 100% | 100% | 90% | 100% | 100% | 100%
7 | CC(=O)OC1=C(c2c(C)cc(C)cc2C)C(=O)N2CCOCCC12 (centres unmarked) [Ib-1-12] | 100% | 100% | 90% | 100% | 100% | 100% | 100% | 100% | 100% | 100%
8 | CCOC(=O)OC1=C(c2c(C)cccc2CC)C(=O)N2CCOCCC12 (centres unmarked) [Ib-1-13] | 100% | 100% | 90% | 100% | 100% | 100% | 80% | 100% | 100% | 90%
9 | CCc1cccc(C)c1C1=C(OC(=O)C(C)(C)C)C2CCOCCN2C1=O (centres unmarked) [Ib-1-14] | 100% | 100% | 90% | 100% | 100% | 100% | 80% | 90% | 100% | 100%
10 | CCc1cc(Cl)cc(OC)c1C1=C(OC(=O)OC)C2CCOCCN2C1=O (centres unmarked) [Ib-1-16] | 100% | 100% | 100% | 100% | 100% | 100% | 100% | 100% | 100% | 100%
11 | CCc1cc(Cl)cc(OC)c1C1=C(OC(=O)C(C)(C)C)C2CCOCCN2C1=O (centres unmarked) [Ib-1-18] | 100% | 100% | 100% | 100% | 100% | 100% | 100% | 100% | 100% | 100%
